# Assay results taken from US11001872B2, “Designing customized protein-specific buffer system” (priority 2015, dated 2021).
# Tests used:
# protein sample [1] = test: Protein stability screen: protein melting point temperature in MES/BTP buffer mixture; assay type: physicochemical; settings: Hoefmeister Series screen; higher Tm
# Source text: In one embodiment, the present invention contemplates a method comprising a physiologic buffer mixture having a temperature-stable pKa to identify test compounds that increase stability of a sample protein by performing a protein melting point temperature screen. […] Although it is not necessary to understand the mechanism of an invention it is believed that a protein stability screen acts to define the bulk properties of a solution system (i.e. impact of pH, ionic strength, buffer etc.) and not just one specific component like most of the other screening conditions. The buffer system also acts as an internal control that simultaneously compares new and old conditions under identical conditions. Although commonly used previously, a urea stability test provides validation and verification of all testing parameters by comparative analysis with historical literature. DMSO screening allows for the nomination of conditions where protein compounds are usually insoluble (e.g., for example, drug binding studies) to identify the proper use of DMSO to solubilize these compounds without effecting the performance of the intended assay.
# See, FIG. 1. […] See, FIG. 3. […] See, FIG. 4. […] See, FIG. 5. […] See, FIG. 6.
# A metal ion screen was performed that compared the relative effects of five (5) different metal chloride ions, each at two different concentrations. See, FIG. 7. […] See, FIG. 8.
# In one embodiment, the kit instructions comprise the following steps: • i) pre-chill the RT-PCR plate at 4° C. for 15-30 minutes prior to the addition of reagents and/or protein sample to each of the wells. • ii) The dye vial and kit plates should be stored at −20° C. and away from light until the time of use. • iii) Add 5 μl of dye to 500 μl of protein sample. The dye to protein ratio can be modified to any particular protein. For example, smaller proteins or proteins with a small hydrophobic core may require an increased dye concentration. • iv) Transfer 5 μl of each solution from the well plate to a corresponding well of the RT-PCR plate. • v) Add 5 μl of the protein/dye mixture to each well of the RT-PCR plate (>0.5 mg/ml). • vi) Mix the solutions by pipetting up and down (˜5 times). • a) gently placing all solutions at the bottom of the avoids subsequent plate centrifugation. • vii) Seal the RT-PCR plate. • viii) Immediately load the TR-PCR plate into the instrument and begin the programmed heating schedule (approximate timeframe=62 minutes), for example: • a) Heat to 20 C • b) Ramp to 90 C in 0.5 C increments. • c) Ramp to 4 C with a two minute schedule. • ix) Upload stored data file to a designated website (e.g., for example, caymanchem.com/deltatm) and follow the instructions.
# protein sample [2] = test: Protein quality control screen: melting point temperature vs pH and NaCl concentration; assay type: physicochemical
# Source text: In one embodiment, the present invention contemplates a method comprising a protein quality control screen. Although it is not necessary to understand the mechanism of an invention, it is believed that a quality control screen may be used to analyze: i) comparison of protein state prior to storage and post storage; ii) protein synthesis/purification lot-to-lot comparison; and iii) protein synthesis/purification batch testing. In one embodiment, the protein quality control screen measures protein melting point temperature while varying both pH concentration and ionic strength (e.g., for example, using a sodium chloride dose response curve). See, Table 1.
# In one embodiment, a three dimensional map of the protein melting point temperatures is created by plotting the melting point determinations relative to pH and ionic strength. See. FIG. 15.
smiles,measurement,setting,value
[Cl-].[Na+] [sodium chloride],effect on protein stability (Tm),protein sample [1],improved the stability of the protein
same,protein melting point temperature,"protein sample [2]; pH 5, NaCl Concentration 0.125",73 °C
same,protein melting point temperature,"protein sample [2]; pH 5, NaCl Concentration 0.25",73.5 °C
same,protein melting point temperature,"protein sample [2]; pH 5, NaCl Concentration 0.5",74.5 °C
same,protein melting point temperature,"protein sample [2]; pH 5, NaCl Concentration 0.75",76 °C
same,protein melting point temperature,"protein sample [2]; pH 5, NaCl Concentration 1",76.5 °C
same,protein melting point temperature,"protein sample [2]; pH 5, NaCl Concentration 1.25",77 °C
same,protein melting point temperature,"protein sample [2]; pH 5, NaCl Concentration 1.5",77 °C
same,protein melting point temperature,"protein sample [2]; pH 5, NaCl Concentration 1.75",76.5 °C
same,protein melting point temperature,"protein sample [2]; pH 5, NaCl Concentration 2",77 °C
same,protein melting point temperature,"protein sample [2]; pH 5.5, NaCl Concentration 0.125",75 °C
same,protein melting point temperature,"protein sample [2]; pH 5.5, NaCl Concentration 0.25",75 °C
same,protein melting point temperature,"protein sample [2]; pH 5.5, NaCl Concentration 0.5",75 °C
same,protein melting point temperature,"protein sample [2]; pH 5.5, NaCl Concentration 0.75",76 °C
same,protein melting point temperature,"protein sample [2]; pH 5.5, NaCl Concentration 1",76.5 °C
same,protein melting point temperature,"protein sample [2]; pH 5.5, NaCl Concentration 1.25",77 °C
same,protein melting point temperature,"protein sample [2]; pH 5.5, NaCl Concentration 1.5",77 °C
same,protein melting point temperature,"protein sample [2]; pH 5.5, NaCl Concentration 1.75",77.5 °C
same,protein melting point temperature,"protein sample [2]; pH 5.5, NaCl Concentration 2",77.5 °C
same,protein melting point temperature,"protein sample [2]; pH 6, NaCl Concentration 0.125",75 °C
same,protein melting point temperature,"protein sample [2]; pH 6, NaCl Concentration 0.25",76 °C
same,protein melting point temperature,"protein sample [2]; pH 6, NaCl Concentration 0.5",76 °C
same,protein melting point temperature,"protein sample [2]; pH 6, NaCl Concentration 0.75",76.5 °C
same,protein melting point temperature,"protein sample [2]; pH 6, NaCl Concentration 1",77 °C
same,protein melting point temperature,"protein sample [2]; pH 6, NaCl Concentration 1.25",77 °C
same,protein melting point temperature,"protein sample [2]; pH 6, NaCl Concentration 1.5",77 °C
same,protein melting point temperature,"protein sample [2]; pH 6, NaCl Concentration 1.75",78 °C
same,protein melting point temperature,"protein sample [2]; pH 6, NaCl Concentration 2",77.5 °C
same,protein melting point temperature,"protein sample [2]; pH 6.5, NaCl Concentration 0.125",76 °C
same,protein melting point temperature,"protein sample [2]; pH 6.5, NaCl Concentration 0.25",76.5 °C
same,protein melting point temperature,"protein sample [2]; pH 6.5, NaCl Concentration 0.5",76.5 °C
same,protein melting point temperature,"protein sample [2]; pH 6.5, NaCl Concentration 0.75",77 °C
same,protein melting point temperature,"protein sample [2]; pH 6.5, NaCl Concentration 1",77.5 °C
same,protein melting point temperature,"protein sample [2]; pH 6.5, NaCl Concentration 1.25",77.5 °C
same,protein melting point temperature,"protein sample [2]; pH 6.5, NaCl Concentration 1.5",77.5 °C
same,protein melting point temperature,"protein sample [2]; pH 6.5, NaCl Concentration 1.75",78 °C
same,protein melting point temperature,"protein sample [2]; pH 6.5, NaCl Concentration 2",78 °C
same,protein melting point temperature,"protein sample [2]; pH 7, NaCl Concentration 0.125",76 °C
same,protein melting point temperature,"protein sample [2]; pH 7, NaCl Concentration 0.25",76.5 °C
same,protein melting point temperature,"protein sample [2]; pH 7, NaCl Concentration 0.5",77 °C
same,protein melting point temperature,"protein sample [2]; pH 7, NaCl Concentration 0.75",77.5 °C
same,protein melting point temperature,"protein sample [2]; pH 7, NaCl Concentration 1",77.5 °C
same,protein melting point temperature,"protein sample [2]; pH 7, NaCl Concentration 1.25",77.5 °C
same,protein melting point temperature,"protein sample [2]; pH 7, NaCl Concentration 1.5",77.5 °C
same,protein melting point temperature,"protein sample [2]; pH 7, NaCl Concentration 1.75",77 °C
same,protein melting point temperature,"protein sample [2]; pH 7, NaCl Concentration 2",77 °C
same,protein melting point temperature,"protein sample [2]; pH 7.5, NaCl Concentration 0.125",76.5 °C
same,protein melting point temperature,"protein sample [2]; pH 7.5, NaCl Concentration 0.25",77.5 °C
same,protein melting point temperature,"protein sample [2]; pH 7.5, NaCl Concentration 0.5",77.5 °C
same,protein melting point temperature,"protein sample [2]; pH 7.5, NaCl Concentration 0.75",78 °C
same,protein melting point temperature,"protein sample [2]; pH 7.5, NaCl Concentration 1",77.5 °C
same,protein melting point temperature,"protein sample [2]; pH 7.5, NaCl Concentration 1.25",76.5 °C
same,protein melting point temperature,"protein sample [2]; pH 7.5, NaCl Concentration 1.5",76 °C
same,protein melting point temperature,"protein sample [2]; pH 7.5, NaCl Concentration 1.75",76 °C
same,protein melting point temperature,"protein sample [2]; pH 7.5, NaCl Concentration 2",75 °C
same,protein melting point temperature,"protein sample [2]; pH 8, NaCl Concentration 0.125",75.5 °C
same,protein melting point temperature,"protein sample [2]; pH 8, NaCl Concentration 0.25",77.5 °C
same,protein melting point temperature,"protein sample [2]; pH 8, NaCl Concentration 0.5",76.5 °C
same,protein melting point temperature,"protein sample [2]; pH 8, NaCl Concentration 0.75",77.5 °C
same,protein melting point temperature,"protein sample [2]; pH 8, NaCl Concentration 1",76.5 °C
same,protein melting point temperature,"protein sample [2]; pH 8, NaCl Concentration 1.25",76.5 °C
same,protein melting point temperature,"protein sample [2]; pH 8, NaCl Concentration 1.5",76 °C
same,protein melting point temperature,"protein sample [2]; pH 8, NaCl Concentration 1.75",75 °C
same,protein melting point temperature,"protein sample [2]; pH 8, NaCl Concentration 2",74.5 °C
same,protein melting point temperature,"protein sample [2]; pH 8.5, NaCl Concentration 0.125",75 °C
same,protein melting point temperature,"protein sample [2]; pH 8.5, NaCl Concentration 0.25",75.5 °C
same,protein melting point temperature,"protein sample [2]; pH 8.5, NaCl Concentration 0.5",76 °C
same,protein melting point temperature,"protein sample [2]; pH 8.5, NaCl Concentration 0.75",77 °C
same,protein melting point temperature,"protein sample [2]; pH 8.5, NaCl Concentration 1",76 °C
same,protein melting point temperature,"protein sample [2]; pH 8.5, NaCl Concentration 1.25",75 °C
same,protein melting point temperature,"protein sample [2]; pH 8.5, NaCl Concentration 1.5",75 °C
same,protein melting point temperature,"protein sample [2]; pH 8.5, NaCl Concentration 1.75",75 °C
same,protein melting point temperature,"protein sample [2]; pH 8.5, NaCl Concentration 2",74.5 °C
same,protein melting point temperature,"protein sample [2]; pH 9, NaCl Concentration 0.125",75 °C
same,protein melting point temperature,"protein sample [2]; pH 9, NaCl Concentration 0.25",75 °C
same,protein melting point temperature,"protein sample [2]; pH 9, NaCl Concentration 0.5",75.5 °C
same,protein melting point temperature,"protein sample [2]; pH 9, NaCl Concentration 0.75",75 °C
same,protein melting point temperature,"protein sample [2]; pH 9, NaCl Concentration 1",75 °C
same,protein melting point temperature,"protein sample [2]; pH 9, NaCl Concentration 1.25",75 °C
same,protein melting point temperature,"protein sample [2]; pH 9, NaCl Concentration 1.5",75 °C
same,protein melting point temperature,"protein sample [2]; pH 9, NaCl Concentration 1.75",74.5 °C
same,protein melting point temperature,"protein sample [2]; pH 9, NaCl Concentration 2",74 °C
